This is an account of results in ChEMBL document CHEMBL3734753, “Phenyl Ether- and Aniline-Containing 2-Aminoquinolines as Potent and Selective Inhibitors of Neuronal Nitric Oxide Synthase” (J Med Chem, 2015).

The Ki is the equilibrium dissociation constant of an inhibitor or competing ligand from its target.

In experiment [1] the target is T1, Nitric oxide synthase, inducible (Mus musculus, UniProt P29477).
T1 sequence (P29477 whole entry): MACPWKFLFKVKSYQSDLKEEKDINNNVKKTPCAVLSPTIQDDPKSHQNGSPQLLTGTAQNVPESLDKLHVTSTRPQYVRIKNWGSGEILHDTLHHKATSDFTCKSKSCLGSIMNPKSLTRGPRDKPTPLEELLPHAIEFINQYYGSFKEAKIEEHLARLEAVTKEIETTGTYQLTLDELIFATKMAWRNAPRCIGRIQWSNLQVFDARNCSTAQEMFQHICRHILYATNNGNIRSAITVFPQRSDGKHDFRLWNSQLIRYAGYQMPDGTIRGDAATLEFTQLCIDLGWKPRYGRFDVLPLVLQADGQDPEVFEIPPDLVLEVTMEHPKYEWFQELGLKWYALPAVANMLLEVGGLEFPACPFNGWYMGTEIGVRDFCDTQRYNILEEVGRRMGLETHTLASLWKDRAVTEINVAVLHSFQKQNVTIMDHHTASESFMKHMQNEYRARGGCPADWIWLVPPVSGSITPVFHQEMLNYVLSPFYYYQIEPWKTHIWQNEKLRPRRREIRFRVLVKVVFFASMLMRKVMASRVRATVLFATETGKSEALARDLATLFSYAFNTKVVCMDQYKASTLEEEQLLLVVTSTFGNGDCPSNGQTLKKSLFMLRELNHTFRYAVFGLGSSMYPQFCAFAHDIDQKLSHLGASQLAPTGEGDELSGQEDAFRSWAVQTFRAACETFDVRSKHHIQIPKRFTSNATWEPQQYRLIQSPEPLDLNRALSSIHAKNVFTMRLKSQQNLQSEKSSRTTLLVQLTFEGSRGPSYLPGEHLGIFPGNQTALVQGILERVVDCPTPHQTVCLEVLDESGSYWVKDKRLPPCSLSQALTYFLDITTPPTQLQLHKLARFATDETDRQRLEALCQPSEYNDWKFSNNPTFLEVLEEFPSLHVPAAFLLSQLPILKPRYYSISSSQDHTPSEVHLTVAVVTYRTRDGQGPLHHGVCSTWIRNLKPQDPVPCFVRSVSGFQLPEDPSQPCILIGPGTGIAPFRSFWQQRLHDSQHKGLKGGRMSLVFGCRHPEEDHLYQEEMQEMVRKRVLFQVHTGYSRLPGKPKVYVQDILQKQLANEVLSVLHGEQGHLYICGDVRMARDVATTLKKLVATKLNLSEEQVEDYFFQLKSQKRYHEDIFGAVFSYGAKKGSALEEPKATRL

The target of experiment [2] is Nitric oxide synthase 1 (Rattus norvegicus, UniProt P29476). Description: Inhibition of wild type recombinant rat nNOS expressed in Escherichia coli assessed as nitric oxide production by hemoglobin capture assay.
In experiment [3] the target is T2, Nitric oxide synthase 3 (Bos taurus, UniProt P29473).
T2 sequence (P29473 whole entry): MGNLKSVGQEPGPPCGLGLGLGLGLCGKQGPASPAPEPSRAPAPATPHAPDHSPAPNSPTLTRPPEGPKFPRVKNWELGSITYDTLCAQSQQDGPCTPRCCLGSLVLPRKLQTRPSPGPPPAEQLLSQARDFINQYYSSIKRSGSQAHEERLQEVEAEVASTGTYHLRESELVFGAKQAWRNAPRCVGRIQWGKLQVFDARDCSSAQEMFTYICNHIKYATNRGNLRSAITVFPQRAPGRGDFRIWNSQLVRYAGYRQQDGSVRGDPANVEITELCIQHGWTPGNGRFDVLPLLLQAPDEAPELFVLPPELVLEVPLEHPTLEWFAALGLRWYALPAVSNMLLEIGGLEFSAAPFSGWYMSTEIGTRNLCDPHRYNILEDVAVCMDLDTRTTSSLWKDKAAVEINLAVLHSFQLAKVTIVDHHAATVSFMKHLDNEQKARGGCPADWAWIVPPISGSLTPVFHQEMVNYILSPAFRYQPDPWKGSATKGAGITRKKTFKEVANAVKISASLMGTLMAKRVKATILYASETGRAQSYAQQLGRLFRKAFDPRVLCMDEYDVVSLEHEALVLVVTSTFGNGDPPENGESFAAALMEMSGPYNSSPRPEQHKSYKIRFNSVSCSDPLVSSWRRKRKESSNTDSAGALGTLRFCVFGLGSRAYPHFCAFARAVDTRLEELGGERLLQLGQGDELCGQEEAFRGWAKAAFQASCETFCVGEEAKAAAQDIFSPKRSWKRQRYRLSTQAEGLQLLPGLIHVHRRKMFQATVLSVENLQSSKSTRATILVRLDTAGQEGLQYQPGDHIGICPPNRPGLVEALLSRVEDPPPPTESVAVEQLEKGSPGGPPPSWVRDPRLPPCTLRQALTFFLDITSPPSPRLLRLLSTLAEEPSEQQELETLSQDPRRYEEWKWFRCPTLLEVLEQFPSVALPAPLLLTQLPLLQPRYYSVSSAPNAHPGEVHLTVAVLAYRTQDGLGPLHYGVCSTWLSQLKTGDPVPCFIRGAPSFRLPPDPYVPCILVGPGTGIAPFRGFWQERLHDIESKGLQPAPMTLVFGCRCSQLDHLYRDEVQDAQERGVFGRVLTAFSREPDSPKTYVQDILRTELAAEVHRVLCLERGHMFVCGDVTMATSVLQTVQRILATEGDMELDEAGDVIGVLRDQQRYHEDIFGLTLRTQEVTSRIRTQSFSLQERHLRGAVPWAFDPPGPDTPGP
Description: Inhibition of recombinant bovine eNOS expressed in Escherichia coli assessed as nitric oxide production by hemoglobin capture assay.

The nature of experiment [4]: Selectivity ratio of Ki for wild type recombinant rat nNOS to Ki for bovine eNOS.
Experiment [5] in a line: Selectivity ratio of Ki for wild type recombinant rat nNOS to Ki for human nNOS.
In experiment [6] the target is Nitric oxide synthase 1 (Homo sapiens, UniProt P29475).

Some results are limits rather than exact numbers.

Nitric oxide synthase 1 (Rattus norvegicus, UniProt P29476), sequence (P29476 whole entry): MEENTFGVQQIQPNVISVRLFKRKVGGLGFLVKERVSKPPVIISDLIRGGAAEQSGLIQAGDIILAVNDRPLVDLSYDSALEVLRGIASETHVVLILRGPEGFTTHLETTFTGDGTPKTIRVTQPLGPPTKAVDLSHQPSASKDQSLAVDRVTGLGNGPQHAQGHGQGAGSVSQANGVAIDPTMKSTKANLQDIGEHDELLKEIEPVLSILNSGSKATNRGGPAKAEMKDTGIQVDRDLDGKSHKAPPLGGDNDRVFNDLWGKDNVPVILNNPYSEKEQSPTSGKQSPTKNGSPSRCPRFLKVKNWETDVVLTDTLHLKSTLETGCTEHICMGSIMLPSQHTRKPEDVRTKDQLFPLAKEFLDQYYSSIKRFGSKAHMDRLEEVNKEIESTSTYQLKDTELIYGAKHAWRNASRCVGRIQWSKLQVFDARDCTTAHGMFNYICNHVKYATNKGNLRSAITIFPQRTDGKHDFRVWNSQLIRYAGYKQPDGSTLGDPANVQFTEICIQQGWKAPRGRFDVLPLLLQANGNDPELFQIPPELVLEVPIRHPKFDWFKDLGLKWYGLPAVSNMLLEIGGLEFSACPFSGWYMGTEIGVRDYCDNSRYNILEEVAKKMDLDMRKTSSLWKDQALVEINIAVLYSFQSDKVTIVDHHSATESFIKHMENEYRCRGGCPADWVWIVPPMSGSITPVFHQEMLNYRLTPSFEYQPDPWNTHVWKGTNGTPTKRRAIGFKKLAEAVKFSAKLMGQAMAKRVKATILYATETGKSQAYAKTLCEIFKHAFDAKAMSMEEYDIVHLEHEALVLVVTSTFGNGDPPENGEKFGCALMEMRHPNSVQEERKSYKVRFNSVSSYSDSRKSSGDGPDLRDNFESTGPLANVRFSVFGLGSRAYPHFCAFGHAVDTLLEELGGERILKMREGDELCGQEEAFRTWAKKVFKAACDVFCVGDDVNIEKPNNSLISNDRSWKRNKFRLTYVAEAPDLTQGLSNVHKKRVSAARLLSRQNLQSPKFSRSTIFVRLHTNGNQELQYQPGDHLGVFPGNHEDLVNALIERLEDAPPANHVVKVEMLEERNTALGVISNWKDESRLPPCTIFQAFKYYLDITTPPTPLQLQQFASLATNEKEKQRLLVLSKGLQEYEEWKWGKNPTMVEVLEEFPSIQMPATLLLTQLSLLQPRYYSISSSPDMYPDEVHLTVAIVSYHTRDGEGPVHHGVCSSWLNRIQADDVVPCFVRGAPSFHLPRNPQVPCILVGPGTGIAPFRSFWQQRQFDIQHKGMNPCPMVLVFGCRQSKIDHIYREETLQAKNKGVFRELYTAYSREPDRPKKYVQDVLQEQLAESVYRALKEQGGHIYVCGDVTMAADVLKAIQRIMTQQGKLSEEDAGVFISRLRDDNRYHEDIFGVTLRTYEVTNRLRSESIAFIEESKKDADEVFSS
Nitric oxide synthase 1 (Homo sapiens, UniProt P29475), sequence (P29475 whole entry): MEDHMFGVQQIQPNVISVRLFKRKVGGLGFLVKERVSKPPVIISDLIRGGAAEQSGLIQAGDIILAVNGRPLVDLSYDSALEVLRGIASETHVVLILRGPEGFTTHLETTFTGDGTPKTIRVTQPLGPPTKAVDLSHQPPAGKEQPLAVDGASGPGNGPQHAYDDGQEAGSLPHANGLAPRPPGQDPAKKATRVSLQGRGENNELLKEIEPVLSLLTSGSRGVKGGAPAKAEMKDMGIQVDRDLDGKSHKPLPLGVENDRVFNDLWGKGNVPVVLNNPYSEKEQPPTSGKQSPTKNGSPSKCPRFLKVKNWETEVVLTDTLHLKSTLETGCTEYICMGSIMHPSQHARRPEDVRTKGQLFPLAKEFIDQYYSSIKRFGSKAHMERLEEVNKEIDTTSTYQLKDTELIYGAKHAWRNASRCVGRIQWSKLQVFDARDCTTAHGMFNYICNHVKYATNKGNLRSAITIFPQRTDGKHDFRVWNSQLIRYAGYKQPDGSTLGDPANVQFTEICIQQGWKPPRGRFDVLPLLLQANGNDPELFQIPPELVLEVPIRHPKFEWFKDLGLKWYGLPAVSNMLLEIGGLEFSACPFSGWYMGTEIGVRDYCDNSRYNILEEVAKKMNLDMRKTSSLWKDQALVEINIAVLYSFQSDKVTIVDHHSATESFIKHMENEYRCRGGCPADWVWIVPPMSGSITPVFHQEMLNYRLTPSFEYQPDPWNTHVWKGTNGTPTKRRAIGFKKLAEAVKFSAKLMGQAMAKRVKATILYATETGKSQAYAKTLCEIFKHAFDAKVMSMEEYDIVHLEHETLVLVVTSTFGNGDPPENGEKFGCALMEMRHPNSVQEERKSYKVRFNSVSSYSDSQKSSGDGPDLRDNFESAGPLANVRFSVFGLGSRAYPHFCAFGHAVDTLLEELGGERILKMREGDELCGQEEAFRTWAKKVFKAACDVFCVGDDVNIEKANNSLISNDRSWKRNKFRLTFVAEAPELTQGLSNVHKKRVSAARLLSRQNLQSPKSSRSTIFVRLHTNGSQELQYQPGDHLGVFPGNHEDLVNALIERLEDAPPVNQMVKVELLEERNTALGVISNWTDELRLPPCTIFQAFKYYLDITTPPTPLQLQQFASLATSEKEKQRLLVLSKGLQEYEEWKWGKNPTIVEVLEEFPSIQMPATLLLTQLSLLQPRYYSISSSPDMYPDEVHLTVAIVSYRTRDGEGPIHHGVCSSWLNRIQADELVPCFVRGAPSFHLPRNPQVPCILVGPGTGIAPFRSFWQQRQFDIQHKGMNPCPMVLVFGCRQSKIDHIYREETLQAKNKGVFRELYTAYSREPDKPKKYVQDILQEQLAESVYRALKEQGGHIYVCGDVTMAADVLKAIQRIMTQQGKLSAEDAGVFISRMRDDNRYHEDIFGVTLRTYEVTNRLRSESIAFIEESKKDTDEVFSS

Compound `CNCc1cc(OCc2ccc3ccc(N)nc3c2)ccc1F` yielded a Ki in experiment [1] of 11.4 µM.
As to `CNC(C)c1cccc(OCc2ccc3ccc(N)nc3c2)c1` (racemic), the inhibitory constant (Ki) in experiment [2] was 0.36 µM; in experiment [1], 67.1 µM.
Consider `CNCc1ccc(OCc2ccc3ccc(N)nc3c2)cc1`, for which the results for the Ki in experiment [2] and in experiment [1] were 0.332 µM and 48.7 µM, respectively.
For `CN(C)CCCc1cccc(OCc2ccc3ccc(N)nc3c2)c1`, in experiment [2], the Ki came to 0.652 µM.
As for `CN(C)CCOc1cccc(OCc2ccc3ccc(N)nc3c2)c1`, the results for the Ki in experiment [3] and in experiment [1] were 31 µM and 178 µM, respectively. Also, the Ratio Ki in experiment [4] is 44.
For `Nc1ccc2ccc(COc3cccnc3)cc2n1`, in experiment [2], the Ki turned out to be 0.712 µM.
In the case of `CNCc1cncc(OCc2ccc3ccc(N)nc3c2)c1`, the Ratio Ki in experiment [5] worked out at 11.8; in experiment [4], 77. Moreover, the Ki in experiment [2] was 0.043 µM; in experiment [3] it was 3.31 µM; in experiment [6], 0.507 µM; in experiment [1], 13.5 µM.
Regarding `CNCc1cccc(NCc2ccc3ccc(N)nc3c2)c1`, the Ki in experiment [2] was found to be 0.569 µM.
As to `CN(C)CCc1cccc(OCc2ccc3ccc(N)nc3c2)c1`, the Ki in experiment [2] is 0.468 µM; in experiment [3] it was 17.7 µM; in experiment [1] it was 150 µM.
As for `CN(C)c1cccc(OCc2ccc3ccc(N)nc3c2)c1`, in experiment [2], the Ki was > 5.75 µM.
